For assay [1], the target named is recombinant mouse 11β-HSD1 (Mus musculus, UniProt P50172). Briefly: Enzyme activity assay on mouse 11β-HSD1 (HTRF, corticosterone production). In kind it is biochemical. The note with it: recombinant mouse 11β-HSD1, 2 μM 11-dehydrocorticosterone as substrate, 2 hours at 37° C., read-out: mouseIC50. The method, then:
Evaluation of 11β-HSD1 Inhibitors (Enzyme Activity Assay on Mouse 11β-HSD1)
Enzymatic activity for mouse 11β-HSD1 activity was determined in a 10 μl final volume of assay mixture containing 50 mM sodium phosphate buffer (pH 7.6), 1 mg/ml bovine serum albumin, 0.42 mg/ml NADPH, 1.26 mg/ml glucose-6-phosphate, glucose-6-phosphate dehydrogenase, test compound, recombinant mouse 11β-HSD1, and 2 μM 11-dehydrocorticosterone as substrate. The reaction was started with the addition of 11-dehydrocorticosterone. After incubation for 2 hours at 37° C., 5 μl of europium cryptate-labelled anti-cortisol antibody and 5 μl of XL665-labeled cortisol were added. After further incubation for 2 hours at room temperature, the HTRF signal was measured. The corticosterone production was quantitated by a standard curve generated with several known concentrations of corticosterone in each assay.
The amount of corticosterone production without compounds served as control, and the percent inhibition by compound at each concentration was calculated. The IC50 value of the compound for 11β-HSD1 was obtained using the inhibition curve generated by plotting the percent inhibition versus the concentration of test compound.
Background: TR-FRET usually uses a lanthanide donor and a delayed reading to cut background.

Assay [2] has as its target recombinant human 11β-HSD1 (Homo sapiens, UniProt P28845). Briefly: Enzyme activity assay on human 11β-HSD1 (HTRF, cortisol production). The note with it: recombinant human 11β-HSD1, 5 μM cortisone as substrate, 2 hours at 37° C., read-out: humanIC50. In kind it is biochemical. The method, then:
Evaluation of 11β-HSD1 Inhibitors (Enzyme Activity Assay on Human 11β-HSD1)
Enzymatic activity for human 11β-HSD1 was determined in a 10 μl final volume of assay mixture containing 50 mM sodium phosphate buffer (pH 7.6), 1 mg/ml bovine serum albumin, 0.42 mg/ml NADPH, 1.26 mg/ml glucose-6-phosphate, glucose-6-phosphate dehydrogenase, test compound, recombinant human 11β-HSD1, and 5 μM cortisone as substrate. The reaction was started with the addition of cortisone. After incubation for 2 hours at 37° C., 5 μl of europium cryptate-labelled anti-cortisol antibody and 5 μl of XL665-labeled cortisol were added. After further incubation for 2 hours at room temperature, the homogeneous time-resolved fluorescence (HTRF) signal was measured. The cortisol production was quantitated by a standard curve generated with several known concentrations of cortisol in each assay.
The amount of cortisol production without compounds served as control, and the percent inhibition by test compound at each concentration was calculated. The IC50 value of the compound for 11β-HSD1 was obtained using the inhibition curve generated by plotting the percent inhibition versus the concentration of test compound.

Chain of recombinant mouse 11β-HSD1 (P50172 whole entry): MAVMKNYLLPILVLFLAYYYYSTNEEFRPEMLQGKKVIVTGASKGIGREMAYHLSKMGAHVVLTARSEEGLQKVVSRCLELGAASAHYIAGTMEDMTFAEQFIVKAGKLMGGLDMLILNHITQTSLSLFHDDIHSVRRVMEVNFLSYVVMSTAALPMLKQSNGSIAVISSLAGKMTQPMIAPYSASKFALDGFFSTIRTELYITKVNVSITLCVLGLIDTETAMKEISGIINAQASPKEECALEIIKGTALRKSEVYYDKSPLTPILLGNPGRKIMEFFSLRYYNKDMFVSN
Chain of recombinant human 11β-HSD1 (P28845 whole entry): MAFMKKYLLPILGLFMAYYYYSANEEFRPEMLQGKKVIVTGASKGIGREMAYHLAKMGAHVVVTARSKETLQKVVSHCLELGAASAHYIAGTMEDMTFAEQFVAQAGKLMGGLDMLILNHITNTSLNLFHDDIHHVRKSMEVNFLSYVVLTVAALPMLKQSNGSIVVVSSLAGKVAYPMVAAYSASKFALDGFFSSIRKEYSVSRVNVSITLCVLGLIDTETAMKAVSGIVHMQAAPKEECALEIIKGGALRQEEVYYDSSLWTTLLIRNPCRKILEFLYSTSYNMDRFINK

As to `CC(C)Sc1c(OCC(C)(C)N)noc1C(=O)NC1C2CC3CC(C2)CC1C3` (stereo not drawn) [Compound 29], the IC50 is 330 nM in assay [1] and 43 nM in assay [2].

As to `COCC(C)(C)COc1noc(C(=O)NC2C3CC4CC(C3)CC2C4)c1SC(C)C` (stereo not drawn) [II-117], the IC50 was 21 nM in assay [1] and 95 nM in assay [2].

On to `O=C(NC1(COc2noc(C(=O)N[C@H]3C4CC5CC3C[C@](O)(C5)C4)c2SC2CCCC2)CC1)c1ccc(Cl)cc1Cl` [II-150], for which the IC50 was 27 nM in assay [1] and 10 nM in assay [2].

Regarding `CCCSc1c(OCC2CCNCC2)noc1C(=O)NC1C2CC3CC(C2)CC1C3` (stereo not drawn) [Compound 9c], the results for the IC50 in assay [1] and in assay [2] were 500 nM and 180 nM, respectively.

As to `CC(C)Sc1c(OCC(C)(C)C(=O)N2CCNCC2)noc1C(=O)NC1C2CC3CC(C2)CC1C3` (stereo not drawn) [II-18], the IC50 in assay [1] was 49 nM; in assay [2], 35 nM.

With `CC(C)Sc1c(OCC(C)(C)C#N)noc1C(=O)N[C@H]1C2CC3CC1C[C@](O)(C3)C2` [II-130], the values for the IC50 in assay [1] and in assay [2] were 33 nM and 86 nM, respectively.

For the molecule `CC(C)Sc1c(OCC(F)(F)C(=O)NCCN)noc1C(=O)NC1C2CC3CC(C2)CC1C3` (stereo not drawn) [II-25], the IC50 was 160 nM in assay [1] and 51 nM in assay [2].

Consider `CC(C)Sc1c(OCC2CCNCC2)noc1C(=O)NC1C2CCCC1CCC2` (stereo not drawn) [Compound 12b], for which the figures for the IC50 in assay [1] and in assay [2] were 1600 nM and 140 nM, respectively.

`CC(C)Sc1c(OCC(C)(C)NC(=O)NCCN)noc1C(=O)NC1C2CC3CC(C2)CC1C3` (stereo not drawn) [Compound 27]: the IC50 in assay [1] was 38 nM; in assay [2] it was 260 nM.

Turning to `CC(C)Sc1c(OCC(C)(C)NC(=O)C2(N)CC2)noc1C(=O)NC1C2CC3CC(C2)CC1C3` (stereo not drawn) [II-49], the IC50 was 23 nM in assay [1] and 71 nM in assay [2].

On to `CC(C)(COc1noc(C(=O)N[C@H]2C3CC4CC2C[C@](O)(C4)C3)c1SC1CCCC1)N1CCOC1=O` [II-153], for which the IC50 in assay [1] amounted to 14 nM; in assay [2], 25 nM.

`CC(C)CSc1c(OCC(C)(C)CCCN)noc1C(=O)NC1C2CC3CC(C2)CC1C3` (stereo not drawn) [II-72]: the IC50 was 6.5 nM in assay [1] and 77 nM in assay [2].
